What all share (type): cell-based
The target in assay [1] is T1, hGIPR (Homo sapiens, UniProt P48546).
T1 construct: expressed in transfected cells
T1 sequence (P48546 22-466): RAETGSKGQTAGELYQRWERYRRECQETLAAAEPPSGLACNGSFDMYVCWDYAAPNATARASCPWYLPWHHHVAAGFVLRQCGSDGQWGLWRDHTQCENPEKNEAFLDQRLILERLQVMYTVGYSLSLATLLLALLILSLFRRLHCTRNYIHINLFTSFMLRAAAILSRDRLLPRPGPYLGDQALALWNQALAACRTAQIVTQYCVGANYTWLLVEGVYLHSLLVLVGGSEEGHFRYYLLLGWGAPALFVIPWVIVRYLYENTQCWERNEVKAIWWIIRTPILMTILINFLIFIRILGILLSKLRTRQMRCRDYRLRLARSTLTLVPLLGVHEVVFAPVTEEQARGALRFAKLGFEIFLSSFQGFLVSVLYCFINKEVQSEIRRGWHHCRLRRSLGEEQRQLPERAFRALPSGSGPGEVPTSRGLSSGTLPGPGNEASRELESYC
The assay can be described thus: Functional cAMP formation (HTRF) in HEK-293 clonal cells expressing hGIPR, 0.1% bovine casein, without or with 1.0% human serum albumin. The following applies: for EC50: geometric mean, read-out: hGIPR EC50, nM (SEM, n); for Emax: read-out: hGIPR Emax, % ± SEM. In outline:
(§1)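 Cells were stimulated with peptide for 30 min at 37° C, then lysed in buffer carrying cAMP-d2 and anti-cAMP Eu3+-cryptate for a competitive HTRF read after at least 60 min at room temperature. The 665/620 nm ratio was converted to nM cAMP against a standard curve.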
On the technique in general: Changes in cAMP serve as a functional read-out for many G protein-coupled receptors.

Assay [2] deals with T2, hGCGR (Homo sapiens, UniProt P47871).
T2 construct: expressed in transfected cells
Briefly: Functional cAMP formation (HTRF) in HEK-293 clonal cells expressing hGCGR, 0.1% bovine casein, without or with 1.0% human serum albumin. The following applies: read-out: hGCGR EC50, nM (SEM, n). The procedure, abridged: as §1

The target in assay [3] is hGLP-1R (Homo sapiens, UniProt P43220). Briefly: Functional cAMP formation (HTRF) in HEK-293 clonal cells expressing hGLP-1R, 0.1% bovine casein, without or with 1.0% human serum albumin. Details: expressed in transfected cells. The following applies: for EC50: read-out: hGLP-1R EC50, nM (SEM, n); for Emax: read-out: hGLP-1R Emax, % ± SEM. In outline:
as §1

Setting [4] is: 0.1% bovine casein and 1.0% human serum albumin, 37° C., geometric mean.
[5] abbreviates: cAMP, incubated at 37° C., 0.1% bovine casein (no human serum albumin), geometric mean.
The mark [6] stands for this setting: HEK293, cAMP, 37° C., 0.1% bovine casein and 1.0% human serum albumin, percent of maximal response to GIP(1-42)NH2.
Where [7] appears, read: HEK293, cAMP, 37° C., 0.1% bovine casein, percent of maximal response to GIP(1-42)NH2, arithmetic mean.
[8] abbreviates: cAMP, 37° C., 0.1% bovine casein (no human serum albumin).
The mark [9] stands for this setting: cAMP, 37° C., 0.1% bovine casein (no human serum albumin), geometric mean.
[10] abbreviates: cAMP, 37° C., 0.1% bovine casein and 1.0% human serum albumin, geometric mean (SEM, n).
The mark [11] stands for this setting: HEK293, cAMP, 37° C., 0.1% bovine casein and 1.0% human serum albumin, percent of maximal response to GLP-1(7-36)NH2.
The mark [12] stands for this setting: HEK293, cAMP, 37° C., 0.1% bovine casein, percent of maximal response to GLP-1(7-36)NH2, arithmetic mean.

Where two headings read alike, the source gives them in different places. *1 amine or outer side, *2 acyl side, *3 side chain or, on linkers, in order; H or OH if unused. Where a SMILES comes first, the peptide text is derived from it. Side-chain parts run from the residue outwards. [ ]: non-standard residue; d: D form. The star is where a group is joined. αMePhe(2-F) = C[C@](N)(Cc1ccccc1F)C(=O)O; C14 diacid = O=C(O)CCCCCCCCCCCCC(=O)*; εLys = N[C@@H](CCCCN[*:1])C(=O)[*:2]; αMeY = C[C@](N)(Cc1ccc(O)cc1)C(=O)O; 4Pal = N[C@@H](Cc1ccncc1)C(=O)O; αMeL = CC(C)C[C@](C)(N)C(=O)O; Orn = NCCC[C@H](N)C(=O)O; AEEA = NCCOCCOCC(=O)O; Aib = CC(C)(N)C(=O)O

T2 sequence (P47871 26-477): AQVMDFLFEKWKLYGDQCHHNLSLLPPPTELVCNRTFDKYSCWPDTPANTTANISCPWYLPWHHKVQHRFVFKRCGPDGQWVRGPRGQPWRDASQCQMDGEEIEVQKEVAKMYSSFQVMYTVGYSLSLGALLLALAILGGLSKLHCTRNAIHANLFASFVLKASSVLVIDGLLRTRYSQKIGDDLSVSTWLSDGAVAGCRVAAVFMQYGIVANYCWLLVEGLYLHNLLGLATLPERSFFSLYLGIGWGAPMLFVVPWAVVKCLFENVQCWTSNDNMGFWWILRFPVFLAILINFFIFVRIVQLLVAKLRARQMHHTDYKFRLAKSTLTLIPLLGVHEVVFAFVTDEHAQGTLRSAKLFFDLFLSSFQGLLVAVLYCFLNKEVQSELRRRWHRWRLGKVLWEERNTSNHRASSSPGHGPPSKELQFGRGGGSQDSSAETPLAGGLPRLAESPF
Chain of hGLP-1R (P43220 24-463): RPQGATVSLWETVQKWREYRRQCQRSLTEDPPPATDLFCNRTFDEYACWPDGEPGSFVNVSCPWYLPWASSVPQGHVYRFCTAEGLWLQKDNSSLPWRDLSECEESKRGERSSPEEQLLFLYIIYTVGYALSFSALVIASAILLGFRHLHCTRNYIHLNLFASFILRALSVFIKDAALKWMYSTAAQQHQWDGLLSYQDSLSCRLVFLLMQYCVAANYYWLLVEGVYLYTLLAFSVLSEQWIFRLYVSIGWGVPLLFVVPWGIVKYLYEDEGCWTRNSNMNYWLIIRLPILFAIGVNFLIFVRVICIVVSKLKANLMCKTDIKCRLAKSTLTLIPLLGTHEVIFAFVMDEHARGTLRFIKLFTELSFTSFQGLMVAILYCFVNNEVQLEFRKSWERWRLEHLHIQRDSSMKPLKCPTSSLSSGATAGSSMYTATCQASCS

For orientation: EC50 means the concentration needed to bring the measured effect to its halfway point. The term Emax denotes the greatest response seen or fitted, relative to the assay's reference. On to `CC[C@H](C)[C@H](NC(=O)[C@H](CC(C)C)NC(=O)[C@](C)(Cc1ccc(O)cc1)NC(=O)[C@@H](CCC(=O)O)NC(=O)[C@@H](NC(=O)[C@H](Cc1ccccc1)NC(=O)[C@H](CCC(=O)O)NC(=O)C(C)(C)NC(=O)[C@H](CCC(N)=O)NC(=O)[C@H](C)NC(=O)[C@H](CCCCNC(=O)COCCOCCNC(=O)COCCOCCNC(=O)[C@@H](N)CCCCNC(=O)CCCCCCCCCCCCC(=O)O)NC(=O)[C@H](CCCN)NC(=O)[C@H](CC(=O)O)NC(=O)[C@H](CC(C)C)NC(=O)[C@](C)(CC(C)C)NC(=O)[C@@H](NC(=O)[C@H](CO)NC(=O)[C@H](Cc1ccncc1)NC(=O)[C@H](CC(=O)O)NC(=O)[C@H](CO)NC(=O)[C@@H](NC(=O)[C@](C)(Cc1ccccc1F)NC(=O)[C@@H](NC(=O)CNC(=O)[C@H](CCC(=O)O)NC(=O)C(C)(C)NC(=O)[C@@H](N)Cc1ccc(O)cc1)[C@@H](C)O)[C@@H](C)O)[C@@H](C)CC)[C@@H](C)CC)C(=O)N[C@@H](CCC(=O)O)C(=O)NCC(=O)NCC(=O)N[C@@H](CCCCNC(=O)COCCOCCNC(=O)COCCOCCNC(=O)[C@@H](N)CCCCNC(=O)CCCCCCCCCCCCC(=O)O)C(N)=O` [Example 185] (H-Y[Aib]EGT[αMePhe(2-F)]TSD[4Pal]SI[αMeL]LD[Orn]K([AEEA-AEEA-εLys-C14 diacid])AQ[Aib]EFI[dE][αMeY]LIEGGK([AEEA-AEEA-εLys-C14 diacid])-NH2; N-terminus assumed), for which the EC50 is 0.335 nM in assay [1] (0.1% bovine casein and 1.0% human serum albumin, 37° C.); 0.018 nM in assay [1] (cAMP, incubated at 37° C., 0.1% bovine casein (no human serum albumin)); above 9950 nM in assay [2] (setting [4]); above 9950 nM in assay [2] (setting [5]); 11.3 nM in assay [3] (setting [4]); 0.419 nM in assay [3] (setting [5]). Further, the Emax in assay [1] (HEK293, 0.1% bovine casein and 1.0% human serum albumin, 37° C., percent of maximal response to GIP(1-42)NH2) was 86.2%; in assay [1] (HEK293, percent of maximal response to GIP(1-42)NH2, 37° C., 0.1% bovine casein, arithmetic mean), 94.5 ± 0.288%; in assay [3] (HEK293, percent of maximal response to GLP-1(7-36)NH2, 37° C., 0.1% bovine casein, arithmetic mean), 95.1 ± 1.74%.

`CCCCCCCCCCCC(=O)N[C@@H](CCC(=O)NCCOCCOCC(=O)NCCOCCOCC(=O)NCCCC[C@H](NC(=O)[C@H](CCCN)NC(=O)[C@H](CC(=O)O)NC(=O)[C@H](CC(C)C)NC(=O)[C@](C)(CC(C)C)NC(=O)[C@@H](NC(=O)C(C)(C)NC(=O)[C@H](Cc1ccncc1)NC(=O)[C@H](CC(=O)O)NC(=O)[C@H](CO)NC(=O)[C@@H](NC(=O)[C@](C)(Cc1ccccc1F)NC(=O)[C@@H](NC(=O)CNC(=O)[C@H](CCC(=O)O)NC(=O)C(C)(C)NC(=O)[C@@H](N)Cc1ccc(O)cc1)[C@@H](C)O)[C@@H](C)O)[C@@H](C)CC)C(=O)N[C@@H](C)C(=O)N[C@@H](CCC(N)=O)C(=O)NC(C)(C)C(=O)N[C@@H](Cc1ccncc1)C(=O)N[C@@H](Cc1ccccc1)C(=O)N[C@H](C(=O)N[C@H](CCC(=O)O)C(=O)N[C@@](C)(Cc1ccc(O)cc1)C(=O)N[C@@H](CC(C)C)C(=O)N[C@H](C(=O)N[C@@H](CCCCNC(=O)COCCOCCNC(=O)COCCOCCNC(=O)CC[C@H](NC(=O)CCCCCCCCCCC)C(=O)O)C(=O)NCC(=O)NCC(=O)N1CCC[C@H]1C(=O)N[C@@H](CO)C(=O)N[C@@H](CO)C(=O)NCC(=O)N[C@@H](C)C(=O)N1CCC[C@H]1C(=O)N1CCC[C@H]1C(=O)N1CCC[C@H]1C(=O)N[C@@H](CO)C(N)=O)[C@@H](C)CC)[C@@H](C)CC)C(=O)O` [Example 416]: the Emax in assay [1] (setting [6]) turned out to be 83%; in assay [1] (setting [7]) it was 99%; in assay [3] (setting [11]), 109%. The EC50 in assay [1] (setting [8]) is 0.0214 nM; in assay [2] (setting [9]), above 9950 nM; in assay [2] (setting [10]), above 9950 nM; in assay [3] (setting [9]) it was 0.332 nM.

Take `CCCCCCCCCCCC(=O)N[C@@H](CCC(=O)NCCOCCOCC(=O)NCCCC[C@H](NC(=O)[C@H](CCCN)NC(=O)[C@H](CC(=O)O)NC(=O)[C@H](CC(C)C)NC(=O)[C@](C)(CC(C)C)NC(=O)[C@@H](NC(=O)C(C)(C)NC(=O)[C@H](Cc1ccncc1)NC(=O)[C@H](CC(=O)O)NC(=O)[C@H](CO)NC(=O)[C@@H](NC(=O)[C@](C)(Cc1ccccc1F)NC(=O)[C@@H](NC(=O)CNC(=O)[C@H](CCC(=O)O)NC(=O)C(C)(C)NC(=O)[C@@H](N)Cc1ccc(O)cc1)[C@@H](C)O)[C@@H](C)O)[C@@H](C)CC)C(=O)N[C@@H](C)C(=O)N[C@@H](CCC(N)=O)C(=O)NC(C)(C)C(=O)N[C@@H](CCC(=O)O)C(=O)N[C@@H](Cc1ccccc1)C(=O)N[C@H](C(=O)N[C@H](CCC(=O)O)C(=O)N[C@@](C)(Cc1ccc(O)cc1)C(=O)N[C@@H](CC(C)C)C(=O)N[C@H](C(=O)N[C@@H](CCCCNC(=O)COCCOCCNC(=O)CC[C@H](NC(=O)CCCCCCCCCCC)C(=O)O)C(=O)NCC(=O)NCC(=O)N1CCC[C@H]1C(=O)N[C@@H](CO)C(=O)N[C@@H](CO)C(=O)NCC(=O)N[C@@H](C)C(=O)N1CCC[C@H]1C(=O)N1CCC[C@H]1C(=O)N1CCC[C@H]1C(=O)N[C@@H](CO)C(N)=O)[C@@H](C)CC)[C@@H](C)CC)C(=O)O` [Example 427]: the Emax in assay [1] (setting [6]) is 92.4%; in assay [1] (setting [7]) it was 95.9%; in assay [3] (setting [11]), 109%; in assay [3] (setting [12]), 109%. The EC50 was 0.0132 nM in assay [1] (setting [8]); above 9950 nM in assay [2] (setting [9]); above 9950 nM in assay [2] (setting [10]); 0.206 nM in assay [3] (setting [9]); 25.1 nM in assay [3] (setting [10]).

As to `CC[C@H](C)[C@H](NC(=O)[C@H](CC(C)C)NC(=O)[C@](C)(Cc1ccc(O)cc1)NC(=O)[C@@H](CCC(=O)O)NC(=O)[C@@H](NC(=O)[C@H](Cc1ccccc1)NC(=O)[C@H](CCCCNC(=O)COCCOCCNC(=O)COCCOCCNC(=O)CC[C@H](NC(=O)CCCCCCCCCCCCC(=O)O)C(=O)O)NC(=O)C(C)(C)NC(=O)[C@H](CCC(N)=O)NC(=O)[C@H](C)NC(=O)[C@H](CCCCNC(=O)COCCOCCNC(=O)COCCOCCNC(=O)CC[C@H](NC(=O)CCCCCCCCCCCCC(=O)O)C(=O)O)NC(=O)[C@H](CCCN)NC(=O)[C@H](CC(=O)O)NC(=O)[C@H](CC(C)C)NC(=O)[C@](C)(CC(C)C)NC(=O)[C@@H](NC(=O)C(C)(C)NC(=O)[C@H](Cc1ccncc1)NC(=O)[C@H](CC(=O)O)NC(=O)[C@H](CO)NC(=O)[C@@H](NC(=O)[C@](C)(Cc1ccccc1F)NC(=O)[C@@H](NC(=O)CNC(=O)[C@H](CCC(=O)O)NC(=O)C(C)(C)NC(=O)[C@@H](N)Cc1ccc(O)cc1)[C@@H](C)O)[C@@H](C)O)[C@@H](C)CC)[C@@H](C)CC)C(=O)N[C@@H](CCCN)C(=O)NCC(=O)NCC(=O)N1CCC[C@H]1C(=O)N[C@@H](CO)C(=O)N[C@@H](CO)C(=O)NCC(=O)N[C@@H](C)C(=O)N1CCC[C@H]1C(=O)N1CCC[C@H]1C(=O)N1CCC[C@H]1C(=O)N[C@@H](CO)C(N)=O` [Example 406], the Emax was 87.3% in assay [1] (setting [6]), 96% in assay [3] (setting [11]) and 98.5% in assay [3] (setting [12]). Further, the EC50 in assay [1] (setting [8]) is 0.00896 nM; in assay [2] (setting [9]), above 9950 nM; in assay [2] (setting [10]) it was above 9950 nM; in assay [3] (setting [9]) it was 0.351 nM.

The values above are taken from patent US20230265151A1, “GIP/GLP1 CO-AGONIST COMPOUNDS” (priority 2020, published 2023).
